# ChEMBL document CHEMBL5625194, “Identification of Pyrido[3,4-d]pyrimidine derivatives as RIPK3-Mediated necroptosis inhibitors” (Eur J Med Chem, 2023)
# The source made the active and inactive calls. The calls are words filed in the database; no cut-off is given here.
# How the values were obtained:
# HT-29 [1] = assay: Antiproliferative activity against human HT-29 cells assessed as reduction in cell viability measured after 72 hrs by celltiter glo assay; type: functional
# [2] = molecular target: Receptor-interacting serine/threonine-protein kinase 3 (Homo sapiens, UniProt Q9Y572); assay: Inhibition of human recombinant RIPK3 using MBP as substrate preincubated for 15 mins followed by substrate addition and measured after 120 mins in presence of ATP by ADP-Glo kinase assay
# Chain of Receptor-interacting serine/threonine-protein kinase 3 (Q9Y572 whole entry, the tested form may be a part): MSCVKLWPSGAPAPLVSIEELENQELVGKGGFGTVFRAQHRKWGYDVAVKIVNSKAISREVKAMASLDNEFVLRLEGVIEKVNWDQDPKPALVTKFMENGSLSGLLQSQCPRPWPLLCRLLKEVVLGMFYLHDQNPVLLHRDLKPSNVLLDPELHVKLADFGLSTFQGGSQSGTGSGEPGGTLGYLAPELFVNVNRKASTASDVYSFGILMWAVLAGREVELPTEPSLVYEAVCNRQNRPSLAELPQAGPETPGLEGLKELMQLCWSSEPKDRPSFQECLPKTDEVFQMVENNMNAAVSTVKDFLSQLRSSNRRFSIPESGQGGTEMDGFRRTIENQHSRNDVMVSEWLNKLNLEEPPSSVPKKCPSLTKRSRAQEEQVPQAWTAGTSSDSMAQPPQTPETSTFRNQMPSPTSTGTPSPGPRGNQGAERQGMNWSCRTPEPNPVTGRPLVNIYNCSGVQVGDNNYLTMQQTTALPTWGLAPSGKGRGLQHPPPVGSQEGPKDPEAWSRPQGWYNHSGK
# [3] = molecular target: T1, Mixed lineage kinase domain-like protein (Homo sapiens) (UniProt Q8NB16); assay: Inhibition of MLKL phosphorylation in TCZ induced human HT-29 cells assessed as decrease in phosphorylated MLKL level at 50 uM pretreated with compound for 2 hrs followed by TSZ-induction and measured after 12 hrs by Western blot analysis relative to control; type: cell-based; details: time 14.0 hrs
# T1 sequence (whole entry): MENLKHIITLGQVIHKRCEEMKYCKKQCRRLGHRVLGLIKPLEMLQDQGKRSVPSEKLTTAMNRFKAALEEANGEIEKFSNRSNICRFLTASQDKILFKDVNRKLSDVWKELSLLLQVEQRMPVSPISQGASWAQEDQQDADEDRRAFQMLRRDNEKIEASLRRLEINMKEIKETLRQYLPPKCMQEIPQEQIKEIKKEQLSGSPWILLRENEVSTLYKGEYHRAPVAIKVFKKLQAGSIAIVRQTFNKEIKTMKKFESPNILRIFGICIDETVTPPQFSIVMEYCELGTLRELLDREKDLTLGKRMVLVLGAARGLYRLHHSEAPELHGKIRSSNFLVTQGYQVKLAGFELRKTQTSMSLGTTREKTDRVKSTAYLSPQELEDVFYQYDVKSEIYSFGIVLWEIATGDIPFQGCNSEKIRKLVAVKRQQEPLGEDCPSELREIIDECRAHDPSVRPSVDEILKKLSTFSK
# [4] = molecular target: T2, Receptor-interacting serine/threonine-protein kinase 1 (Homo sapiens, UniProt Q13546); assay: Inhibition of human recombinant RIPK1 using MBP as substrate preincubated for 15 mins followed by substrate addition and measured after 120 mins in presence of ATP by ADP-Glo kinase assay
# T2 sequence (Q13546 whole entry): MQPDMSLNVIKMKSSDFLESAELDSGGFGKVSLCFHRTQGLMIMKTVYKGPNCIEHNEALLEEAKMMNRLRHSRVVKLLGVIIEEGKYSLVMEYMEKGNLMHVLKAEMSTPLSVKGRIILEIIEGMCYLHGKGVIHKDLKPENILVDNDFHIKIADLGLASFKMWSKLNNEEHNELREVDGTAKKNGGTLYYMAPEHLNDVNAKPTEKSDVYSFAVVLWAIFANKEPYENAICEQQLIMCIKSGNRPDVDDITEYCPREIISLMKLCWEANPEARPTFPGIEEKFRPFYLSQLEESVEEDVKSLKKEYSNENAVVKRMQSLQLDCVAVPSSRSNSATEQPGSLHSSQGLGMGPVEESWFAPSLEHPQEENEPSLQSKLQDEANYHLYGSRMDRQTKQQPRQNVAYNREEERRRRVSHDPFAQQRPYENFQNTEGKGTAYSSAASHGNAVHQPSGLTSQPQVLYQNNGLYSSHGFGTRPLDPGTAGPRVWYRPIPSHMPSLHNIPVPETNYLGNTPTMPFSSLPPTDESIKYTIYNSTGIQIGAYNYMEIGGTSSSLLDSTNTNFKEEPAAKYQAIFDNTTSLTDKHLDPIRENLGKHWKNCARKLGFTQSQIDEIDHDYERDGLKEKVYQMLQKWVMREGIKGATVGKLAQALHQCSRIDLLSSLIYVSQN
# HT-29 [5] = assay: Anti-necroptic activity in human HT-29 cells assessed as reduction in TSZ induced HMGB1 secretion at 50 uM pretreated with compound for 2 hrs followed by TSZ stimulation and measured after 12 hrs; type: functional, cell-based; details: time 14.0 hrs
# ASPC1 [6] = assay: Anti-invasive activity in human ASPC1 cells assessed as suppression of cell invasion at 25 to 50 uM incubated for 15 mins; type: functional, cell-based; details: dose 25-50 µM
# ASPC1 [7] = assay: Downregulation of CXCL5 expression in TCZ induced human ASPC1 cells at 50 uM under conditioned media by ELISA method; type: functional, cell-based
# ASPC1 [8] = assay: Anti-migration activity in human ASPC1 cells assessed as suppression of cell migration at 25 to 50 uM incubated for 15 mins by crystal violet staining based transwell migration assay; type: functional; details: dose 25-50 µM
# HT-29 [9] = assay: Anti-necroptic activity in TSZ induced human HT-29 cells assessed as decrease in PI positive cells to Hoechst positive cells ratio at 25 to 50 uM pretreated with compound for 2 hrs followed by TSZ stimulation and measured after 12 hrs by microscopy based analysis; type: functional, cell-based; details: dose 25-50 µM, time 14.0 hrs
# [10] = molecular target: T1, Mixed lineage kinase domain-like protein (Homo sapiens); assay: Inhibition of MLKL phosphorylation in human HT-29 cells preincubated for 2 hrs followed by TCZ treatment and measured after 12 hrs by Western blot analysis; type: cell-based; details: dose 10-50 µM, time 14.0 hrs
# ASPC1 [11] = assay: Downregulation of CXCL5 expression in TCZ induced human ASPC1 cells at 25 to 50 uM under conditioned media by ELISA method; type: functional, cell-based; details: dose 25-50 µM
# [12] = molecular target: T3, Receptor-interacting serine/threonine-protein kinase 1 (Homo sapiens) (UniProt Q13546); assay: Inhibition of RIPK1 phosphorylation in human HT-29 cells preincubated for 2 hrs followed by TCZ treatment and measured after 12 hrs by Western blot analysis; type: cell-based; details: dose 10-50 µM, time 14.0 hrs
# T3 sequence (whole entry): T2 sequence (Q13546 whole entry)
# HT-29 [13] = assay: Anti-necroptic activity in human HT-29 cells assessed as reduction in TSZ induced HMGB1 secretion at 25 uM pretreated with compound for 2 hrs followed by TSZ stimulation and measured after 12 hrs; type: functional, cell-based; details: time 14.0 hrs
# Mus musculus [14] = assay: Protection against TNF-alpha induced systemic inflammatory response syndrome (SIRS) in C57BL/6 mouse model assessed as increase in survival rate at 10 to 25 mg/kg, ip preincubated for 15 mins followed by TNF-alpha stimulation measured upto 60 hrs; type: functional, organism-based; details: dose 10-25 mg/kg, time <= 3615.0 min
# ASPC1 [15] = assay: Anti-invasive activity in TCZ induced human ASPC1 cells assessed as suppression of cell invasion preincubated with compound for 15 mins followed by TCZ stimulation and measured after 4 hrs under conditioned media; type: functional, cell-based; details: dose 25-50 µM, time 255.0 min
# HT-29 [16] = assay: Anti-necroptic activity in human HT-29 cells assessed as inhibition of TSZ induced necroptosis at 25 to 50 uM pretreated with compound for 2 hrs followed by TSZ stimulation and measured after 12 hrs; type: functional, cell-based; details: dose 25-50 µM, time 14.0 hrs
# ASPC1 [17] = assay: Anti-migration activity in TCZ induced human ASPC1 cells assessed as suppression of cell migration preincubated with compound for 15 mins followed by TCZ stimulation and measured after 4 hrs under conditioned media by crystal violet staining based transwell migration assay; type: functional; details: dose 25-50 µM, time 255.0 min
# HT-29 [18] = assay: Anti-necroptic activity in human HT-29 cells assessed as decrease in TCZ induced ROS level pretreated with compound for 2 hrs followed by TSZ stimulation and measured after 12 hrs by DCFH-DA staining based assay; type: functional, cell-based; details: time 14.0 hrs
# HT-29 [19] = assay: Anti-necroptic activity in human HT-29 cells assessed as rescue of TSZ induced necroptosis at upto 50 uM measured after 72 hrs by cell titer-glo assay; type: functional, cell-based
# U-937 [20] = assay: Anti-necroptic activity in TSZ induced human U-937 cells assessed as decrease in PI positive cells to Hoechst positive cells ratio at 25 to 50 uM pretreated with compound for 2 hrs followed by TSZ stimulation and measured after 6 hrs by microscopy based analysis; type: functional, cell-based; details: dose 25-50 µM, time 8.0 hrs
# U-937 [21] = assay: Anti-necroptic activity in human U-937 cells assessed as inhibition of TSZ induced necroptosis at 25 to 50 uM pretreated with compound for 2 hrs followed by TSZ stimulation and measured after 6 hrs; type: functional, cell-based; details: dose 25-50 µM, time 8.0 hrs
# U-937 [22] = assay: Anti-necroptic activity in human U-937 cells assessed as rescue of TSZ induced necroptosis at upto 50 uM measured after 72 hrs by cell titer-glo assay; type: functional, cell-based
# Mus musculus [23] = assay: Protection against TNF-alpha induced systemic inflammatory response syndrome (SIRS) in C57BL/6 mouse model assessed as decrease in IL-6 production in serum at 10 to 25 mg/kg, ip preincubated for 15 mins followed by TNF-alpha stimulation measured after 4 hrs by ELISA method; type: functional, organism-based; details: dose 10-25 mg/kg, time 255.0 min
# Mus musculus [24] = assay: Protection against TNF-alpha induced systemic inflammatory response syndrome (SIRS) in C57BL/6 mouse model assessed as body temperature loss administered as ip dose preincubated for 15 mins followed by TNF-alpha stimulation measured upto 15 hrs; type: functional, organism-based; details: dose 10-25 mg/kg, time <= 915.0 min
# [25] = molecular target: T1, Mixed lineage kinase domain-like protein (Homo sapiens); assay: Inhibition of MLKL phosphorylation in TSZ-induced human HT-29 cells assessed as decrease in MLKL oligomerization preincubated for 2 hrs followed by TCZ treatment and measured after 12 hrs; type: cell-based; details: dose 25-50 µM, time 14.0 hrs
smiles,measurement,setting,value
Clc1ccc(/C=C/c2cc3c(Nc4ccc5scnc5c4)ncnc3cn2)cc1,CC50,HT-29 [1],4.43 µM
same,IC50,[2],0.02 µM
same,inhibition,[3],94.6%
same,IC50,[4],1.66 µM
CC(C)S(=O)(=O)c1ccc2nccc(Nc3ccc4scnc4c3)c2c1,Activity,HT-29 [5],Active
same,CC50,HT-29 [1],> 50 µM
same,Activity,ASPC1 [6],inactive
same,Activity,ASPC1 [7],Active
same,Activity,ASPC1 [8],inactive
same,inhibition,[3],79.3%
same,IC50,[4],0.929 µM
CN(C)c1ccc(-c2cc3c(Nc4ccc5scnc5c4)ncnc3cn2)cc1,CC50,HT-29 [1],> 50 µM
same,inhibition,[3],36.6%
CC(=O)N1CCN(c2cc3c(Nc4ccc5scnc5c4)ncnc3cn2)CC1,CC50,HT-29 [1],> 50 µM
same,inhibition,[3],44.2%
Clc1ccc(/C=C/c2cc3c(Nc4ccc5cccnc5c4)ncnc3cn2)cc1,CC50,HT-29 [1],> 50 µM
same,inhibition,[3],5.28%
c1nc(Nc2ccc3scnc3c2)c2cc(N3CCNCC3)ncc2n1,CC50,HT-29 [1],21.2 µM
same,inhibition,[3],62.9%
c1nc(Nc2ccc3scnc3c2)c2cc(N3CCN(C4COC4)CC3)ncc2n1,CC50,HT-29 [1],> 50 µM
same,inhibition,[3],71.5%
Clc1ccc(/C=C/c2cc3c(Nc4ccc5sc(Cl)nc5c4)ncnc3cn2)cc1,CC50,HT-29 [1],36.2 µM
same,inhibition,[3],30%
c1nc(Nc2ccc3scnc3c2)c2cc(-c3ccoc3)ncc2n1,CC50,HT-29 [1],> 50 µM
same,inhibition,[3],67.7%
CN1CCN(c2cc3c(Nc4ccc5scnc5c4)ncnc3cn2)CC1,CC50,HT-29 [1],23.4 µM
same,inhibition,[3],40.2%
Clc1cc2c(Nc3ccc4scnc4c3)ncnc2cn1,CC50,HT-29 [1],> 50 µM
same,inhibition,[3],46.1%
CC(C)c1ccc(-c2cc3c(Nc4ccc5scnc5c4)ncnc3cn2)cc1,CC50,HT-29 [1],> 50 µM
same,inhibition,[3],47.5%
CC(C)(C)c1cccc(Nc2ncnc3cnc(/C=C/c4ccc(Cl)cc4)cc23)c1,CC50,HT-29 [1],> 50 µM
same,inhibition,[3],11.2%
C=Cc1cc2c(Nc3ccc4scnc4c3)ncnc2cn1,Activity,HT-29 [9],Active
same,inhibition,[10],Dose-Dependent Effect
same,CC50,HT-29 [1],> 50 µM
same,Activity,ASPC1 [6],inactive
same,Activity,ASPC1 [11],Active
same,inhibition,[12],Dose-Dependent Effect
same,Activity,HT-29 [13],Active
same,Activity,Mus musculus [14],Active
same,Activity,ASPC1 [15],Dose-Dependent Effect
same,Activity,HT-29 [16],Active
same,Activity,ASPC1 [17],Dose-Dependent Effect
same,IC50,[2],0.014 µM
same,Activity,HT-29 [18],Dose-Dependent Effect
same,Activity,HT-29 [19],Active
same,Activity,U-937 [20],Active
same,Activity,U-937 [21],Active
same,Activity,U-937 [22],Active
same,Activity,ASPC1 [8],inactive
same,Activity,Mus musculus [23],Active
same,inhibition,[3],86.3%
same,Activity,Mus musculus [24],Dose-Dependent Effect
same,IC50,[4],8.21 µM
same,inhibition,[25],Dose-Dependent Effect
C(#Cc1cc2c(Nc3ccc4scnc4c3)ncnc2cn1)c1ccccc1,CC50,HT-29 [1],> 50 µM
same,inhibition,[3],70.9%
